The results in this text go back to patent US11834453B2, “Substituted pyrimido[5,4-d]pyrimidines as HER2 inhibitors” (Array BioPharma Inc., priority 2020, dated 2023).

The efflux ratio is the permeability from basolateral to apical divided by that in the opposite direction, in the common usage. Usually IC50 stands for the midpoint of a concentration-inhibition curve.

Molecules are shown by their SMILES. Some results are limits rather than exact numbers.

In one data set the target is MDR1 (P-gp) (Homo sapiens (Human), UniProt P08183). As to the kind of experiment: MDR1 transfected LLC-PK1 permeability/efflux, Assay 6. The conditions noted are these: efflux ratio Papp(B-A)/Papp(A-B), MDR1 transfected LLC-PK1; for efflux ratio at 2 h, 1 μM: pig, LLC-PK1, Assay 6 Pe Ratio.
Data set [1] deals with ErbB2 insYVMA (HER2-YVMA, SEQ ID NO: 2) (Homo sapiens, UniProt P04626, INS775YVMA/P1170A). Description: biochemical. The conditions noted are these: ErbB2 insYVMA enzyme assay; read-out: Assay 1 IC50.
Chain of ErbB2 insYVMA (HER2-YVMA, SEQ ID NO: 2) (P04626 with tags, fused parts or gaps INS775YVMA/P1170A limits assumed): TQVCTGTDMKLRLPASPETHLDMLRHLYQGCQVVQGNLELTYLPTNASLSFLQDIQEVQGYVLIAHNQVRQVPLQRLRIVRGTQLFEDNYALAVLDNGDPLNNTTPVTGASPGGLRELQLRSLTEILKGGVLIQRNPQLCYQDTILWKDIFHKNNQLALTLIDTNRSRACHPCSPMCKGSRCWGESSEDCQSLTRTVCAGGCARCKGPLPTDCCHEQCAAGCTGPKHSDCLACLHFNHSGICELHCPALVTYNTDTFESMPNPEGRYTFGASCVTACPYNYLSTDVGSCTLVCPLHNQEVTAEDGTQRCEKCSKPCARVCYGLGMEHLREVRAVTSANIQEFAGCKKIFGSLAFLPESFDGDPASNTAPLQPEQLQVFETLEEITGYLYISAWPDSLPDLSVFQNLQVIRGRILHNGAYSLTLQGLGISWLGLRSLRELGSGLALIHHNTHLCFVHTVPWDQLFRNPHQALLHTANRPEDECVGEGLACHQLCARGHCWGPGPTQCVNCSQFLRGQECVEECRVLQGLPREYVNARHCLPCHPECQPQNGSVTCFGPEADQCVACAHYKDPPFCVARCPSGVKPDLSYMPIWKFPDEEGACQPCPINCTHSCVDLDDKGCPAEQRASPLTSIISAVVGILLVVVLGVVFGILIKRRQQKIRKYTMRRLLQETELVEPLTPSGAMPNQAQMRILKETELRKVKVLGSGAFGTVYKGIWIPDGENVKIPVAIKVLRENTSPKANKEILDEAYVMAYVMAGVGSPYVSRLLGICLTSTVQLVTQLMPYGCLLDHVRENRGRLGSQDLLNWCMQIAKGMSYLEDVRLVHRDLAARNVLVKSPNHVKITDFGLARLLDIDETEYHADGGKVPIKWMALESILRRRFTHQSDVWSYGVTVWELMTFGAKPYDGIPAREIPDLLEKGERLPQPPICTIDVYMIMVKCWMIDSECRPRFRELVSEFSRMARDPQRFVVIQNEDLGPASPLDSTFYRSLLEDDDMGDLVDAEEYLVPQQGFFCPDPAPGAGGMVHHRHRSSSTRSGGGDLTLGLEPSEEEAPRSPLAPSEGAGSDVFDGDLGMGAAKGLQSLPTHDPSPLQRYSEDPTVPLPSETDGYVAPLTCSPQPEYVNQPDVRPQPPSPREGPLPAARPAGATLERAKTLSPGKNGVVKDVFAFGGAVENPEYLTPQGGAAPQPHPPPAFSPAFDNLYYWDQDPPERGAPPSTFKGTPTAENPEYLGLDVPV
The target of the next data set is ErbB2 WT (Homo sapiens (Human), UniProt P04626). Description: ErbB enzyme assay (CisBio HTRF KinEASE-TK), Assay 2. The class given is biochemical. In a few lines: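 ErbB2 phosphorylates 250 nM biotin-TK substrate at 1 mM ATP in 25 mM HEPES pH 7.4, 10 mM MgCl2, 0.01% Triton X-100 and 2% DMSO, for 30 min at 22 °C. Product is detected by HTRF with Sa-XL665 and TK-Ab-Cryptate. Percent of control is set by DMSO-only wells and pre-quenched wells.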
Chain of ErbB2 WT (P04626 23-1255): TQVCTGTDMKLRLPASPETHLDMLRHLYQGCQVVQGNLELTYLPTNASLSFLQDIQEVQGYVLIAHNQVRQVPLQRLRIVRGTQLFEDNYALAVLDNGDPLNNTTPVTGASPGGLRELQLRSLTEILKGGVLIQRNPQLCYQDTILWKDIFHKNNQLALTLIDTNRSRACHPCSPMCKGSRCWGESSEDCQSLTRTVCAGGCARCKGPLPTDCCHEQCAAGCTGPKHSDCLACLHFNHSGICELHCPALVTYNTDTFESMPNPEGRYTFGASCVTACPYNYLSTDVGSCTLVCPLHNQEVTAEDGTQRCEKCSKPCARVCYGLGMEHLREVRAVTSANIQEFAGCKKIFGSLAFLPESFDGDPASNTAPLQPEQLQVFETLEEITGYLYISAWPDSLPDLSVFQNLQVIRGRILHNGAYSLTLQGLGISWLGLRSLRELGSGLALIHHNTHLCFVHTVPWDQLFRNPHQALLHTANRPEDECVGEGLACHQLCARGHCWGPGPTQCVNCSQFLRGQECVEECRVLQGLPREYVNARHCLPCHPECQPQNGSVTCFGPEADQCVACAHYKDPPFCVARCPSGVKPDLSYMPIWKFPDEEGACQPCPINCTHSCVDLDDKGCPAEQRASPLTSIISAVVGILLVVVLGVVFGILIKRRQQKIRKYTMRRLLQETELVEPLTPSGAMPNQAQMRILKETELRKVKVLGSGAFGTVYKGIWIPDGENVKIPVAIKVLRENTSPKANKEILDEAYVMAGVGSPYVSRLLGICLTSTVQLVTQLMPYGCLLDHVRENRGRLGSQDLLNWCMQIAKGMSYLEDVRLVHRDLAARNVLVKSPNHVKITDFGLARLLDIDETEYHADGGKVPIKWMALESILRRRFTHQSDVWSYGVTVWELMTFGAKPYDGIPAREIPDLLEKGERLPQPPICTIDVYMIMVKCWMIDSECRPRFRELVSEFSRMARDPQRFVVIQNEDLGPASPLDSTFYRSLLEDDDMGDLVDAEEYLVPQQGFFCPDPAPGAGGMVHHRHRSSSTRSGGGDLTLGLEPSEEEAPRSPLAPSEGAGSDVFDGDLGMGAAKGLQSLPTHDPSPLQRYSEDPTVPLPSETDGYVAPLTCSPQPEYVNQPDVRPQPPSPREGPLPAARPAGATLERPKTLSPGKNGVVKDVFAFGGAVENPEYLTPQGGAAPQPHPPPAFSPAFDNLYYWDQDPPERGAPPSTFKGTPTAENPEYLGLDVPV

A further data set deals with EGFR wild type (EGFR WT) (Homo sapiens (Human), UniProt P00533). As to the kind of experiment: Cellular phosphorylation assay, EGF-stimulated EGFR phosphorylation in engineered NIH 3T3 cells, Phospho-EGFR DuoSet IC ELISA, Assay 5. The class given is cell-based. In a few lines: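 NIH 3T3 cells expressing EGFR WT (20,000/well, attached overnight) were exposed to serially diluted compound for 1 h at 37 °C, then stimulated with 100 ng/ml rEGF for 10 min. Phospho-EGFR in lysates measured by sandwich ELISA optical density; IC50 from curves.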
Background: In an ELISA, binding on a coated surface is turned into a signal by an enzyme label.

For another data set, the target named is EGFR (Homo sapiens (Human), UniProt P00533). As to the kind of experiment: ErbB enzyme assay (CisBio HTRF KinEASE-TK), Assay 3. The format is biochemical. The essentials: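 Kinase incubated 30 min at 22 °C with 250 nM biotinylated TK substrate, 1 mM ATP and serially diluted compound in 25 mM HEPES pH 7.4, 10 mM MgCl2, 0.01% Triton X-100, 2% DMSO. Phosphorylation read by HTRF (Sa-XL665/TK-Ab-Cryptate); IC50 from 4-parameter fit of percent of control.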
Chain of EGFR (P00533 25-1210): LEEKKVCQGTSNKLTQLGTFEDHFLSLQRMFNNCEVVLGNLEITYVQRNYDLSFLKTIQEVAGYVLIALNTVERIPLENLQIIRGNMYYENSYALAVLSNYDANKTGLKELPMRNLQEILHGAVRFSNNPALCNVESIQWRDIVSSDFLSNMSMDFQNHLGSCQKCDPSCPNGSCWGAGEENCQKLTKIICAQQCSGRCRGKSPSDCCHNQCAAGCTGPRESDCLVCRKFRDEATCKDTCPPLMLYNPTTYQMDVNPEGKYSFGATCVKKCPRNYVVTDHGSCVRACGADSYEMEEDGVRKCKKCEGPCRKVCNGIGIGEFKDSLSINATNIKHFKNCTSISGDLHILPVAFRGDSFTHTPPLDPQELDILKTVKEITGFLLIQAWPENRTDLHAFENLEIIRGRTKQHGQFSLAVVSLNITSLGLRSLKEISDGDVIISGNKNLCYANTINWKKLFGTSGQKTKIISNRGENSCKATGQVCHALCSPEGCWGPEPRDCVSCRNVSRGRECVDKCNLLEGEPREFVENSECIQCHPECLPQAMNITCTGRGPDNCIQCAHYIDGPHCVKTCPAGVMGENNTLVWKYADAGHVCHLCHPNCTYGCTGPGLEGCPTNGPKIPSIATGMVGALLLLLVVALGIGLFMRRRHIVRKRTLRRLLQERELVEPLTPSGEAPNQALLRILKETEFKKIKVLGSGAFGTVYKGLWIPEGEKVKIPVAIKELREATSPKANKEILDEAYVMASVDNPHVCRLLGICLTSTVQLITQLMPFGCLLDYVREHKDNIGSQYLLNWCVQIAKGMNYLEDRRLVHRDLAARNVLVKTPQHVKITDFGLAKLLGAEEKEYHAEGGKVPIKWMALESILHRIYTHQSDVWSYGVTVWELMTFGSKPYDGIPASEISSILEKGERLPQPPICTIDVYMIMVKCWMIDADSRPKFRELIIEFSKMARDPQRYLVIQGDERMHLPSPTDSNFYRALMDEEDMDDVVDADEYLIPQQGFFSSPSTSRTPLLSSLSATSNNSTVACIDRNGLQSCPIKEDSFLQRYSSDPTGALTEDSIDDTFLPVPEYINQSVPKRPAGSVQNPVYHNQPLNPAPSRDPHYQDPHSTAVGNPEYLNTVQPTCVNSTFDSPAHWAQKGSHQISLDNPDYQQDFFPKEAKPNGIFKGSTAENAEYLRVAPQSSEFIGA
For orientation: Time-resolved FRET reads energy transfer from a long-lived donor to a nearby acceptor.

For a further data set, the target named is BCRP (Homo sapiens (Human), UniProt Q9UNQ0). As to the kind of experiment: BCRP transfected MDCKII canine Mdr1 knockout permeability/efflux, Assay 9. The settings on record: efflux ratio Papp(B-A)/Papp(A-B), BCRP transfected MDCKII canine Mdr1 knockout; for efflux ratio at 2 h, 1 μM: dog, Assay 9 Pe Ratio.
Data set [2] concerns the target ErbB2 with Exon 20 YVMA insertion (HER2-YVMA) (Homo sapiens (Human), UniProt P04626, INS775YVMA). As to the kind of experiment: Cellular phosphorylation assay, constitutive ErbB2 phosphorylation (Y1196) in engineered NIH 3T3 cells, Assay 4. The class given is cell-based. The essentials: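 Engineered NIH 3T3 cells expressing HER2-YVMA treated with compounds 1 h at 37 °C, then formaldehyde-fixed and methanol-permeabilized. pErbB2 Y1196 detected by in-cell infrared immunofluorescence, normalized to GAPDH. IC50 from the normalized curves.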

Chain of ErbB2 with Exon 20 YVMA insertion (HER2-YVMA) (P04626 other isoform, or with tags, fused parts or gaps ins YVMA behind 775): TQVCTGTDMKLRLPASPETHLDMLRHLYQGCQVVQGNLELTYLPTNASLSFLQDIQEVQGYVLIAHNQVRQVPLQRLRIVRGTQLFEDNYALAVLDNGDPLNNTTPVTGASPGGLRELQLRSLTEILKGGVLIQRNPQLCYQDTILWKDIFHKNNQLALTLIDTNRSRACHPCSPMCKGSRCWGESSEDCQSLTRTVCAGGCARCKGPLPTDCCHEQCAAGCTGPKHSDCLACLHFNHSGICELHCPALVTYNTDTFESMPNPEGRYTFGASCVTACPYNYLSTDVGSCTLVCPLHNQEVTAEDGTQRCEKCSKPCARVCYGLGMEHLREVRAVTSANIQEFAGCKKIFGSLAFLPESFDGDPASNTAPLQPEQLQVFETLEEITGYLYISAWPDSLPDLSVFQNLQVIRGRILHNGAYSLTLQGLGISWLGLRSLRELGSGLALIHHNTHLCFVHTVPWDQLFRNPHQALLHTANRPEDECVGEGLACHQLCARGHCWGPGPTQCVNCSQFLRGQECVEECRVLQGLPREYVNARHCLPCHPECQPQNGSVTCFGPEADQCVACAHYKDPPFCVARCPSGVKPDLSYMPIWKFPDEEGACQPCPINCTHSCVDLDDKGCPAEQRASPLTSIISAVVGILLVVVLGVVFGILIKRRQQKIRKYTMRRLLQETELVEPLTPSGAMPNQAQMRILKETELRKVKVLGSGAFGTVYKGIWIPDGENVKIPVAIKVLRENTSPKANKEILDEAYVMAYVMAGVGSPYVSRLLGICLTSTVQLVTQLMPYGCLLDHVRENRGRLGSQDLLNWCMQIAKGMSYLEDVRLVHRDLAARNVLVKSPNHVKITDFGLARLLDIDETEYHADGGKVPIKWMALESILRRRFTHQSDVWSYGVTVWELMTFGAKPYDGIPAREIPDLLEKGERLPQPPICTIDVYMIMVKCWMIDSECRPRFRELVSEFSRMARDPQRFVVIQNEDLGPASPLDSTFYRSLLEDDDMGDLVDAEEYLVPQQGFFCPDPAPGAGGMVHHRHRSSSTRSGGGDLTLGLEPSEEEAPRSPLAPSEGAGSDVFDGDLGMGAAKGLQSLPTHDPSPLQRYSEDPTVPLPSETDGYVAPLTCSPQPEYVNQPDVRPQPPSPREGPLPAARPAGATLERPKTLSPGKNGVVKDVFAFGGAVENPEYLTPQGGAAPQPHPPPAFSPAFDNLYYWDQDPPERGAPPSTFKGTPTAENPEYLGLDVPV
Protocol for MDR1 (P-gp): Both MDR1 transfected LLC-PK1 (Assay 6) and MDR1 transfected MDCKII canine Mdr1 knockout cells (Assay 7) were cultured and plated according to manufacturer's recommendations with the exception that the passage media for the MDR1 transfected LLC-PK1 cell line contained only 2% fetal bovine serum so as to extend passage time out to seven days.
Both positive and negative controls were used to assess functionality of P-gp or BCRP efflux in the assays. Stock solutions for assay controls and the test article were prepared in DMSO for final test concentration of 1 μM. Final organic concentration in the assay was 1%. All dosing solutions contained 10 μM lucifer yellow to monitor MDCKII cell monolayer integrity.
For the apical to basolateral determination (A to B), 75 μL of the test article in transport buffer were added to the apical side of the individual transwells and 250 μL of basolateral media, without compound or lucifer yellow, were added to each well. For the basolateral to apical determination (B to A), 250 μL of test article in transport buffer were added to each well and 75 μL transport buffer, without compound or lucifer yellow, were added to each transwell. All tests were performed in triplicate, and each compound was tested for both apical to basolateral and basolateral to apical transport. The plates were incubated for 2 hours on a Lab-Line Instruments Titer Orbital Shaker (VWR, West Chester, PA) at 50 rpm and 37° C. with 5% CO2. All culture plates were removed from the incubator, 50 μL of media were removed from the apical and basolateral portion of each well, and added to 150 μL of 1 μM labetalol in 2:1 acetonitrile (ACN): H2O, v/v.
The plates were read using a Molecular Devices (Sunnyvale, CA) Gemini Fluorometer to evaluate the lucifer yellow concentrations at excitation/emission wavelengths of 425/535 nm. These values were accepted when found to be below 2% for apical to basolateral and 5% basolateral to apical flux across the MDR1-transfected LLC-PK1 or BCRP-transfected MDCKII cell monolayers. The plates were sealed, and the contents of each well analyzed by LC MS/MS. The compound concentrations were determined from the ratio of the peak areas of the compound to the internal standard (labetalol) in comparison to the dosing solution.
A MDS Sciex API 4000 (Applied Biosystems, Foster City, CA) mass spectrometer was used for detection of the analytes in the ion spray positive mode. Analyte responses were measured by multiple reaction monitoring (“MRM”) of transitions unique to each compound (the protonated precursor ion and selected product ions for each test article and m/z 329 to m/z 162 for labetalol, the internal standard.
The total run time, including re-equilibration, for a single injection was 1.2 minutes. […] The total run time, including re-equilibration, for a single injection was 0.61 minutes.
An efflux ratio is calculated from the mean apical to basolateral (A-B) Papp data and basolateral to apical (B-A) Papp data: Efflux ratio=Papp(B−A)/Papp(A−B)

As for `Cc1cc(Nc2ncnc3cnc(N4CCO[C@H]5C[C@H]54)nc23)ccc1Oc1ccc2c(c1)ncn2C` (single isomer, unassigned) [Example 60a], the efflux ratio at 2 h, 1 μM at MDR1 (P-gp) came out at 1.8; on BCRP, 1.2. The IC50 in data set [1] is 18.4 nM; on ErbB2 WT it was 28.9 nM; on EGFR wild type (EGFR WT), no less than 5000 nM; against EGFR, 8280 nM; in data set [2], 16 nM.

On to `Cc1cc(Nc2ncnc3cnc(N4CCO[C@H]5C[C@H]54)nc23)ccc1Oc1ccc2c(c1)ncn2C` (single isomer, unassigned) [Example 60b], for which the “Assay 6 Pe Ratio” value on MDR1 (P-gp) worked out at 1.9. Further, the IC50 in data set [1] was 16.1 nM; at ErbB2 WT, 18.7 nM; against EGFR wild type (EGFR WT), no less than 5000 nM; against EGFR, 5680 nM; in data set [2], 17.9 nM. Also, the “Assay 9 Pe Ratio” value on BCRP worked out at 1.4.

With `Cc1cc(Nc2ncnc3cnc(N4CC5C6CCC(O6)C5C4)nc23)ccc1Oc1ccc2c(c1)ncn2C` (centres unmarked) [Example 16, N-(3-methyl-4-((1-methyl-1H-benzo[d]imidazol-5-yl)oxy)phenyl)-6-(octahydro-2H-4,7-epoxyisoindol-2-yl)pyrimido[5,4-d]pyrimidin-4-amine], the efflux ratio at 2 h, 1 μM was 1.2 at MDR1 (P-gp) and 1.8 at BCRP. The concentration for half-maximal inhibition (IC50) in data set [1] is 26 nM; against EGFR wild type (EGFR WT), no less than 5000 nM; on EGFR, no less than 10000 nM; in data set [2], 15.2 nM.

As to `Cc1cc(Nc2ncnc3cnc(N4C[C@@H](C)O[C@@H](C)C4)nc23)ccc1Oc1ccc2c(c1)ncn2C` [Example 25, 6-((2S,6R)-2,6-dimethylmorpholino)-N-(3-methyl-4-((1-methyl-1H-benzo[d]imidazol-5-yl)oxy)phenyl)pyrimido[5,4-d]pyrimidin-4-amine], the efflux ratio at 2 h, 1 μM at MDR1 (P-gp) came to 1.7; at BCRP, 1.4. Further, the IC50 in data set [1] is 172 nM; against ErbB2 WT, 329 nM; against EGFR, no less than 10000 nM; in data set [2] it was 53.4 nM.

For the compound `Cc1cc(Nc2ncnc3cnc(N(C)C4CC4)nc23)ccc1Oc1ccc2c(c1)ncn2C` [Example 31, N2-cyclopropyl-N2-methyl-N8-(3-methyl-4-((1-methyl-1H-benzo[d]imidazol-5-yl)oxy)phenyl)pyrimido[5,4-d]pyrimidine-2,8-diamine], the results for the efflux ratio at 2 h, 1 μM on MDR1 (P-gp) and on BCRP were 1.3 and 1.4, respectively. Also, the IC50 in data set [1] was 117 nM; against ErbB2 WT, 158 nM; against EGFR wild type (EGFR WT) it was no less than 5000 nM; against EGFR, no less than 10000 nM; in data set [2], 23.3 nM.

In the case of `CON1CCN(c2ncc3ncnc(Nc4ccc(Oc5ccc6c(c5)ncn6C)c(C)c4)c3n2)CC1` [Example 35, 6-(4-methoxypiperazin-1-yl)-N-(3-methyl-4-((1-methyl-1H-benzo[d]imidazol-5-yl)oxy)phenyl)pyrimido[5,4-d]pyrimidin-4-amine], the efflux ratio at 2 h, 1 μM on MDR1 (P-gp) was determined as 1.3; at BCRP it was 1.2. Further, the IC50 is 33.5 nM in data set [1]; 94.2 nM against ErbB2 WT; no less than 5000 nM at EGFR wild type (EGFR WT); no less than 10000 nM at EGFR; 7.8 nM in data set [2].

For `Cc1cc(Nc2ncnc3cnc(N4CCC4)nc23)ccc1Oc1ccc2c(c1)ncn2C` [Example 36, 6-(azetidin-1-yl)-N-(3-methyl-4-((1-methyl-1H-benzo[d]imidazol-5-yl)oxy)phenyl)pyrimido[5,4-d]pyrimidin-4-amine], the efflux ratio at 2 h, 1 μM on MDR1 (P-gp) was 1.2; on BCRP, 0.9. For the same compound, the IC50 in data set [1] was 26.3 nM; at ErbB2 WT it was 64.6 nM; at EGFR wild type (EGFR WT), no less than 5000 nM; on EGFR it was 9000 nM; in data set [2] it was 41.6 nM.

With `Cc1cc(Nc2ncnc3cnc(-c4ccncc4)nc23)ccc1Oc1ccc2c(c1)ncn2C` [Example 47, N-(3-methyl-4-((1-methyl-1H-benzo[d]imidazol-5-yl)oxy)phenyl)-6-(pyridin-4-yl)pyrimido[5,4-d]pyrimidin-4-amine bis(2,2,2-trifluoroacetate)], the efflux ratio at 2 h, 1 μM at MDR1 (P-gp) is 1.1; on BCRP, 2.3. Moreover, the IC50 in data set [1] is 59.6 nM; against ErbB2 WT it was 91 nM; against EGFR wild type (EGFR WT) it was no less than 5000 nM; on EGFR, no less than 10000 nM; in data set [2], 13.4 nM.

For the compound `Cc1cc(Nc2ncnc3cnc(-c4cnco4)nc23)ccc1Oc1ccc2c(c1)ncn2C` [Example 48, N-(3-methyl-4-((1-methyl-1H-benzo[d]imidazol-5-yl)oxy)phenyl)-6-(oxazol-5-yl)pyrimido[5,4-d]pyrimidin-4-amine], the figures for the efflux ratio at 2 h, 1 μM at MDR1 (P-gp) and on BCRP were 1.6 and 7.2, respectively. Further, the IC50 in data set [1] is 56.6 nM; on ErbB2 WT, 189 nM; at EGFR wild type (EGFR WT), no less than 5000 nM; against EGFR, no less than 10000 nM; in data set [2] it was 48.5 nM.

With `Cc1cc(Nc2ncnc3cnc(N4C[C@@H]5CC[C@H]4CO5)nc23)ccc1Oc1ccc2c(c1)ncn2C` [Example 53, 6-((1S,4S)-2-oxa-5-azabicyclo[2.2.2]octan-5-yl)-N-(3-methyl-4-((1-methyl-1H-benzo[d]imidazol-5-yl)oxy)phenyl)pyrimido[5,4-d]pyrimidin-4-amine], the efflux ratio at 2 h, 1 μM on MDR1 (P-gp) turned out to be 1.7; at BCRP, 1.6. For the same compound, the IC50 in data set [1] is 25 nM; against ErbB2 WT, 75.2 nM; against EGFR wild type (EGFR WT), no less than 5000 nM; against EGFR, no less than 10000 nM; in data set [2] it was 42.7 nM.

Turning to `Cc1cc(Nc2ncnc3cnc(N4CCO[C@@H]5C[C@@H]54)nc23)ccc1Oc1ccc2c(c1)ncn2C` [Example 199, 6-((1R,6S)-2-oxa-5-azabicyclo[4.1.0]heptan-5-yl)-N-(3-methyl-4-((1-methyl-1H-benzo[d]imidazol-5-yl)oxy)phenyl)pyrimido[5,4-d]pyrimidin-4-amine], the efflux ratio at 2 h, 1 μM on MDR1 (P-gp) was 1.9; at BCRP it was 1.4. Moreover, the IC50 in data set [1] was 16.1 nM; against EGFR wild type (EGFR WT) it was no less than 5000 nM; against EGFR, 5680 nM; in data set [2], 17.9 nM.

In the case of `Cc1cc(Nc2ncnc3cnc(N[C@@H]4CCOC4)nc23)ccc1Oc1ccc2c(c1)ncn2C` [Example 275], the efflux ratio at 2 h, 1 μM on MDR1 (P-gp) came to 6. Also, the IC50 in data set [1] was 13.1 nM; against ErbB2 WT it was 16.5 nM; against EGFR wild type (EGFR WT) it was no less than 5000 nM; against EGFR, 1650 nM; in data set [2] it was 18 nM.

For `Cc1cc(Nc2ncnc3cnc(N[C@H]4CN(C)C[C@H]4F)nc23)ccc1Oc1ccc2c(c1)ncn2C` [Example 279], the efflux ratio at 2 h, 1 μM at MDR1 (P-gp) was 16.6. In addition, the IC50 in data set [1] was 25 nM; at ErbB2 WT it was 50.6 nM; against EGFR wild type (EGFR WT), no less than 5000 nM; at EGFR it was 4090 nM; in data set [2], 1.2 nM.

On to `Cc1cc(Nc2ncnc3cnc(N4CCN(C)[C@@H](C)C4)nc23)ccc1Oc1ccc2c(c1)ncn2C` [Example 280], for which the efflux ratio at 2 h, 1 μM on MDR1 (P-gp) came out at 4. The IC50 in data set [1] is 38.2 nM; on ErbB2 WT, 78.2 nM; on EGFR wild type (EGFR WT) it was no less than 5000 nM; at EGFR, no less than 10000 nM; in data set [2] it was 14.7 nM.

Turning to `Cc1cc(Nc2ncnc3cnc(N4CCN(C)[C@H](C)C4)nc23)ccc1Oc1ccc2c(c1)ncn2C` [Example 281], the efflux ratio at 2 h, 1 μM at MDR1 (P-gp) worked out at 2.1. Further, the IC50 was 23.8 nM in data set [1]; 84.2 nM on ErbB2 WT; no less than 5000 nM at EGFR wild type (EGFR WT); no less than 10000 nM against EGFR; 26.6 nM in data set [2].

For `Cc1cc(Nc2ncnc3cnc(O[C@H]4CCNC[C@H]4F)nc23)ccc1Oc1ccc2c(c1)ncn2C` [Example 284], the efflux ratio at 2 h, 1 μM on MDR1 (P-gp) is 95.4. The IC50 in data set [1] was 75.6 nM; against ErbB2 WT, 681 nM; on EGFR wild type (EGFR WT) it was no less than 5000 nM; against EGFR it was no less than 10000 nM; in data set [2], 53.4 nM.

Take `Cc1cc(Nc2ncnc3cnc(O[C@H]4CCNC[C@@H]4F)nc23)ccc1Oc1ccc2c(c1)ncn2C` [Example 285]: the efflux ratio at 2 h, 1 μM on MDR1 (P-gp) came to 72.1. The IC50 in data set [1] is 83.9 nM; against ErbB2 WT it was 787 nM; on EGFR wild type (EGFR WT) it was no less than 5000 nM; on EGFR it was no less than 10000 nM; in data set [2] it was 53.2 nM.
